# Experimental data published in US5393742A, “Preparation for treating renal disease” (MECT Corporation, priority 1990, dated 1995).
# Where two headings read alike, the source gives them in different places.
# Tests used:
# [1] = system: Puromycin aminonucleoside (PAN) induced nephritis; assay type: in vivo, Male Sprague-Dawley (SD) rats; settings: for Kidney Moist Weight / Weight Gain Rate: 14 days after PAN; for Effect on renal disease, nephrosis or nephrotic syndrome (in words): PAN-induced nephritis
# Method: Effect on Puromycin aminonucleoside (PAN) induced nephritis, i.e. PAN induced nephrosis or nephrotic syndrome:
# Male Sprague-Dawley (SD) rats weighing 160-180 g were used.
# As the nephritis, i.e. nephrosis or nephrotic syndrome, causing substance, PAN (made by Sigma Co., Ltd.) was used. As the test compound, sodium N-acetylneuraminate (made by MECT Corporation) was used.
# PAN was intraperitoneally administered in an amount of 80 mg per 1 kg of body weight to rats to cause nephritis, i.e. nephrosis or nephrotic syndrome. Then, the test compound (Groups I, II or III) or physiological saline solution (Group IV) was intraperitoneally administered 3 times a day (morning, noon and evening) for 14 consecutive days immediately after treatment with PAN as follows. As a positive control, methylprednisolone was subcutaneously administered to rats of Group V once a day (noon) for 14 consecutive days immediately after treatment with PAN. Moreover, 3, 6, 9 and 13 days after treatment with PAN, 5 ml water was loaded, and the urine was collected for 6 hours. Fourteen days after treatment with PAN, autopsies were made, the kidneys were extirpated and their moist weights were measured.
# Group I: 0.1 mg Sodium N-acetylneuraminate per 1 kg of body weight was administered.
# Group II: 0.5 mg Sodium N-acetylneuraminate per 1 kg of body weight was administered.
# Group III: 1.0 mg Sodium N-acetylneuraminate per 1 kg of body weight was administered.
# Group IV: 2.5 ml Physiological saline solution per 1 kg of body weight was administered.
# Group V: 2 mg Methylprednisolone per 1 kg of body weight was administered.
# Group VI: Normal rats (no drug was given).
# Regarding the results of therapeutic effect for treating renal disease (nephrotic syndrome) of the given NANA compound per Example 1 above, it will be appreciated that the test compound sodium N-acetylneuraminate (Groups I, II and III) was dissolved in physiological saline and intraperitoneally administered, compared to intraperitoneal administration of physiological saline alone (Group IV) and subcutaneous administration of methylprednisolone (Group V).
# [2] = system: cilium cells from the human airway and cilia of frog palatine mucosa; settings: expectorant, by inhalation; cited from earlier work
# [3] = cited from earlier work
# [4] = system: rat GEC; settings: cited from earlier work
# [5] = system: Male ddy mice; assay: Simplified acute toxicity test of N-acetylneuraminates in mice by intravenous injection; assay type: in vivo
# Method: Simplified acute toxicity test:
# A simplified acute toxicity test of N-acetylneuraminates in mice by intravenous injection was carried out as follows.
# Lithium-, potassium-, barium- and magnesium- salts of N-acetylneuraminic acid were used (all were from MECT Corporation).
# Body weights at the start of the test: 17.7-21.1 g
# The number of animals at each level: 3 mice
# (3) Room temperature: 23±1° C. - Humidity: 55±7%
# The above-mentioned test compounds were dissolved in physiological saline solution to make a 0.2 ml solution per 20 g of body weight in a mouse as an injection fluid and injected into the tail vein. The doses were 500, 1,000 and 2,000 mg/kg.
# [6] = 2.0 mg/kg s.c., once a day, positive control
smiles,measurement,setting,value
CC(=O)N[C@H]1[C@H]([C@H](O)[C@H](O)CO)OC(O)(C(=O)[O-])C[C@@H]1O.[Na+] (stereo partly shown),Kidney Moist Weight,"[1]; 0.1 mg/kg i.p., 3 times a day",0.47 ± 0.02 g/100 g
same,Weight Gain Rate,"[1]; 0.1 mg/kg i.p., 3 times a day",127.1 ± 2.0%
same,Kidney Moist Weight,"[1]; 0.5 mg/kg i.p., 3 times a day",0.44 ± 0.02 g/100 g
same,Weight Gain Rate,"[1]; 0.5 mg/kg i.p., 3 times a day",128.4 ± 1.8%
same,Kidney Moist Weight,"[1]; 1.0 mg/kg i.p., 3 times a day",0.42 ± 0.02 g/100 g
same,Weight Gain Rate,"[1]; 1.0 mg/kg i.p., 3 times a day",131.3 ± 1.9%
same,Urinary Protein Content,"[1]; 3rd Day, 0.1 mg/kg i.p., 3 times a day",14.1 ± 1.1 mg/24 hours
same,Urinary Protein Content,"[1]; 3rd Day, 0.5 mg/kg i.p., 3 times a day",11.3 ± 0.8 mg/24 hours
same,Urinary Protein Content,"[1]; 3rd Day, 1.0 mg/kg i.p., 3 times a day",5.1 ± 0.4 mg/24 hours
same,Urinary Protein Content,"[1]; 6th Day, 0.1 mg/kg i.p., 3 times a day",83.4 ± 8.6 mg/24 hours
same,Urinary Protein Content,"[1]; 6th Day, 0.5 mg/kg i.p., 3 times a day",49.1 ± 13.6 mg/24 hours
same,Urinary Protein Content,"[1]; 6th Day, 1.0 mg/kg i.p., 3 times a day",50.5 ± 10.7 mg/24 hours
same,Urinary Protein Content,"[1]; 9th Day, 0.1 mg/kg i.p., 3 times a day",99.6 ± 14.2 mg/24 hours
same,Urinary Protein Content,"[1]; 9th Day, 0.5 mg/kg i.p., 3 times a day",59.9 ± 14.7 mg/24 hours
same,Urinary Protein Content,"[1]; 9th Day, 1.0 mg/kg i.p., 3 times a day",51.2 ± 15.6 mg/24 hours
same,Urinary Protein Content,"[1]; 13th Day, 0.1 mg/kg i.p., 3 times a day",109.9 ± 12.9 mg/24 hours
same,Urinary Protein Content,"[1]; 13th Day, 0.5 mg/kg i.p., 3 times a day",94.5 ± 30.4 mg/24 hours
same,Urinary Protein Content,"[1]; 13th Day, 1.0 mg/kg i.p., 3 times a day",77.9 ± 17.9 mg/24 hours
same,Systemic side effect (in words),"[1]; PAN rats, weight gain as index of systemic effect",does not show such side effect
same,"Effect on renal disease, nephrosis or nephrotic syndrome (in words)",[1],has a therapeutic effect on renal disease
"C[C@H]1C[C@@H]2[C@H]([C@@H](O)C[C@@]3(C)[C@H]2CC[C@]3(O)C(=O)CO)[C@@]2(C)C=CC(=O)C=C12 [Methylprednisolone, methylprednisolone, reference compound]",Kidney Moist Weight,[1]; [6],0.43 ± 0.01 g/100 g
same,Weight Gain Rate,[1]; [6],107.7 ± 1.6%
same,Urinary Protein Content,"[1]; 3rd Day, 2.0 mg/kg s.c., once a day",22.3 ± 2.1 mg/24 hours
same,Urinary Protein Content,"[1]; 6th Day, 2.0 mg/kg s.c., once a day",55.8 ± 11.4 mg/24 hours
same,Urinary Protein Content,"[1]; 9th Day, 2.0 mg/kg s.c., once a day",68.7 ± 13.1 mg/24 hours
same,Urinary Protein Content,"[1]; 13th Day, 2.0 mg/kg s.c., once a day",56.1 ± 12.5 mg/24 hours
same,Effect on weight gain (in words),"[1]; PAN rats, 14 days",greater inhibition of weight gain
same,Effect on increase in urinary protein content (in words),"[1]; PAN rats, 6th, 9th and 13th day",inhibits increase in urinary protein content
same,Systemic side effect (in words),"[1]; rat, in vivo",greater systemic side effect
CC(=O)N[C@H]1[C@H]([C@H](O)[C@H](O)CO)OC(O)(C(=O)O)C[C@@H]1O (stereo partly shown) [N-acetylneuraminic acid],"Effect on renal disease, nephrosis or nephrotic syndrome (in words)",[1],has an inhibitory effect on nephritis
same,Effect on ciliary motion in the airway,[2],directly promotes ciliary motion in the airway
same,anti vital action,[3]; article [1],anti vital action
same,anti allergic action,"[3]; article [4], guinea pigs",anti allergic action
same,anti inflammatory action,"[3]; articles [2], [3]",anti inflammatory action
"CN(C)c1ncnc2c1ncn2[C@@H]1O[C@H](CO)[C@@H](N)[C@H]1O [PAN, puromycin aminonucleoside]",Effect on heparan sulfate proteoglycan (HSPG),[4],reduces heparan sulfate proteoglycan (HSPG)
CC(=O)N[C@H]1[C@H]([C@H](O)[C@H](O)CO)OC(O)(C(=O)[O-])C[C@@H]1O.[K+] (stereo partly shown) [Potassium N-acetylneuraminate],The number of deaths per day course,"[5]; 500 mg/kg i.v., 1 hrs",0
same,The number of deaths per day course,"[5]; 500 mg/kg i.v., 3 hrs",0
same,The number of deaths per day course,"[5]; 500 mg/kg i.v., 6 hrs",0
same,The number of deaths per day course,"[5]; 500 mg/kg i.v., 24 hrs",0
same,The number of deaths per day course,"[5]; 500 mg/kg i.v., 2 days",0
same,The number of deaths per day course,"[5]; 500 mg/kg i.v., 3 days",0
same,The number of deaths per day course,"[5]; 500 mg/kg i.v., 4 days",0
same,The number of deaths per day course,"[5]; 500 mg/kg i.v., 5 days",0
same,The number of deaths per day course,"[5]; 500 mg/kg i.v., 6 days",0
same,Final Lethality,"[5]; 500 mg/kg i.v., 7 days",0/3
same,The number of deaths per day course,"[5]; 500 mg/kg i.v., 7 days",0
same,Final Lethality,"[5]; 1000 mg/kg i.v., 7 days",3/3
same,The number of deaths per day course,"[5]; 1000 mg/kg i.v., 7 days",0
same,The number of deaths per day course,"[5]; 1000 mg/kg i.v., 1 hrs",3
same,The number of deaths per day course,"[5]; 1000 mg/kg i.v., 3 hrs",0
same,The number of deaths per day course,"[5]; 1000 mg/kg i.v., 6 hrs",0
same,The number of deaths per day course,"[5]; 1000 mg/kg i.v., 24 hrs",0
same,The number of deaths per day course,"[5]; 1000 mg/kg i.v., 2 days",0
same,The number of deaths per day course,"[5]; 1000 mg/kg i.v., 3 days",0
same,The number of deaths per day course,"[5]; 1000 mg/kg i.v., 4 days",0
same,The number of deaths per day course,"[5]; 1000 mg/kg i.v., 5 days",0
same,The number of deaths per day course,"[5]; 1000 mg/kg i.v., 6 days",0
same,Final Lethality,"[5]; 2000 mg/kg i.v., 7 days",3/3
same,The number of deaths per day course,"[5]; 2000 mg/kg i.v., 7 days",0
same,The number of deaths per day course,"[5]; 2000 mg/kg i.v., 1 hrs",3
same,The number of deaths per day course,"[5]; 2000 mg/kg i.v., 3 hrs",0
same,The number of deaths per day course,"[5]; 2000 mg/kg i.v., 6 hrs",0
same,The number of deaths per day course,"[5]; 2000 mg/kg i.v., 24 hrs",0
same,The number of deaths per day course,"[5]; 2000 mg/kg i.v., 2 days",0
same,The number of deaths per day course,"[5]; 2000 mg/kg i.v., 3 days",0
same,The number of deaths per day course,"[5]; 2000 mg/kg i.v., 4 days",0
same,The number of deaths per day course,"[5]; 2000 mg/kg i.v., 5 days",0
same,The number of deaths per day course,"[5]; 2000 mg/kg i.v., 6 days",0
same,Deaths (in words),"[5]; 1,000 and 2,000 mg/kg i.v.",all of the 3 mice died
"C[C@]12C=CC(=O)C=C1CC[C@@H]1[C@@H]2[C@@H](O)C[C@@]2(C)[C@H]1CC[C@]2(O)C(=O)CO [prednisolone, reference compound]",Effect on increase of kidney moist weight (in words),"[1]; PAN rats, 14 days",inhibits increase in kidney moist weight
